“Also recorded” adds a separate entry of the source.
Columns and labels:
HEK-293 cells = test: MTT cytotoxicity assay, normal cell line HEK-293; type: cell-based
Protocol: Following an extensive review of the literature, we selected human breast cancer (MCF-7, MDA-MB-231) and lung cancer (A549) cell lines to evaluate the anticancer potential of the synthesized compounds, and some compounds with good anti-proliferation activity were again tested to evaluate their cytotoxic potential on A-549, MCF-7, and MDA-MB-231. The same were also tested on one non-cancerous/normal (HEK-293) cell line. All the cell lines for the required screening were developed in a suitable medium comprising 10% FBS and 2mM L-glutamine. Cancerous and non-cancerous/normal cell lines were selected for the cell proliferation and cytotoxicity assay and maintained with 5% CO2 at 37 °C in a CO2 incubator with 100% relative humidity for one complete day before the addition of experimental drugs.
MTT, a well-known colorimetric cytotoxic assay was performed to validate the cytotoxicity of the selected compounds—VI(b), VI(c), VI(e), and VI(i)—against three different human tumor cell lines [MCF-7, MDA-MB-231, A549] and a normal cell line [HEK293]. The seeding of 1 × 10^4 cells onto each well was executed in a 96-well plate in triplicate, and to keep the cells viable, overnight incubation was undertaken at 37 °C with 5% CO2 in a CO2 incubator. […] The microplate reader was set at 570 nm to measure the absorbance of each well.

MCF-7 cells [1] = test: Apoptosis study, acridine orange/ethidium bromide dual staining; type: cell-based, human; conditions: AO/EtBr staining, MCF-7, 40, 60, 80 µg/mL
Protocol: The staining technique was performed to determine changes in cellular morphology as acridine orange is a cell-permeable dye; i.e., it can enter inside the nucleus and subsequently intercalate with the DNA of both live and apoptotic cells an then emit a green fluorescence. On the other hand, ethidium bromide can only cross the plasma membrane of compromised or late apoptotic cells and bind with their DNA, subsequently radiating an orange to red fluorescence. Therefore, to assess alterations in the morphology of cells, MCF-7 cells were planted in a 12-well plate at a density of 5 × 10^4 cells/well and incubated in humidified air for 24 h at 37 °C. Following cell seeding, MCF-7 cells were exposed to compound VI(i) with at lower (40 µg/mL), IC50 (60 µg/mL), and higher (80 µg/mL) concentrations. Following this, the incubated cells were washed with a buffer (phosphate-buffered saline), and dual staining was executed with acridine orange and ethidium bromide. Then, a 12-well cell culture plate was kept at 37 °C for 30 min of incubation. Consequently, cells were lightly rinsed with phosphate-buffered saline. Following this, pictures were obtained in the inverted fluorescence microscope using the red and green channels for both the dyes.

MCF-7 cells [2] = test: ROS detection with DCFH-DA; type: cell-based, human; conditions: MCF-7, 40, 60, 80 µg/mL, vs control
Description: ROS are commonly produced as a result of the cellular metabolic routes, and they play a key role as a secondary messenger in the healthy physiological system, but elevated quantities of ROS are the reason for various pathological conditions. To assess oxidative stress (ROS)-mediated apoptosis, DCFH-DA (2′,7′-dichlorodihydrofluorescein diacetate) dye was used as ROS transforms DCFH to DCF, producing a green fluorescence. The intensity of green fluorescence emitted is directly correlated with the amount of ROS produced by the cells in the treatment groups. Briefly, MCF-7 cells were passaged then seeded (5 × 10^4 cells /well) in a 12-well plate and exposed to all three (lower, IC50, higher) concentrations of compound VI(i); then, overnight incubation was undertaken with 5% carbon dioxide at 37 °C. To assess the generated ROS, treated cells (MCF-7) were washed with PBS. Staining was undertaken using DCFH-DA and photographed with the help of a fluorescence microscope (inverted) in the green and phase contrast channels.

MCF-7 cells [3] = test: Cell cycle analysis, propidium iodide flow cytometry; type: cell-based, human
Protocol: Apoptosis can also be determined based on the content of the DNA allocation at different stages of cell cycle distribution. The cultured MCF-7 cell line was washed, trypsinized, and seeded, followed by compound VI(i) exposure in a 6-well cell culture plate. Following this, cells were harvested using 1mM EDTA; then, to fix the cells, ice-cold ethanol was used, and overnight, cells were kept at −20 °C. Afterwards, cells were maintained at room temperature, followed by centrifugation at 3000 RPM for 7 min. Then, staining was conducted using propidium iodide, RNase A, and Triton-X in a buffer (phosphate-buffered saline). It was then analyzed using a flow cytometer.

MCF-7 cells [4] = test: Apoptosis assay, annexin V/PI flow cytometry; type: cell-based, human; conditions: 24 h
Protocol: Qualitative analysis of different stages of apoptosis in MCF-7 cells using AO/EtBr dual staining was further quantitatively validated using annexin V/PI staining. Annexin V binds with the exposed phosphatidyl serine of apoptotic cells in a calcium-dependent manner and permits the determination of a number of cells in different stages of apoptosis. At the same time, PI binds with the nucleic acid of dead cells. In brief, cells were plated in a 6-well cell culture plate followed by exposure to lower, IC50, and higher concentrations of compound VI(i), as described in the above experiments. Following 24 h of incubation, treated cells were harvested using […] EDTA; then, annexin V/PI staining was performed, which was incubated for 30 min at 37 °C. The population of the apoptotic cells was examined by evaluating the cell suspension using a flow cytometer.

[5] = MCF-7, IC50 concentration (60 µg/mL)
[6] = MCF-7, higher concentration (80 µg/mL)
[7] = MCF-7, lower concentration (40 µg/mL)

Structure (SMILES): COc1ccc(-c2cnn(CCCCCC(=O)NO)n2)cc1 [VI(i), N-Hydroxy-6-(4-(4-methoxyphenyl)-2H-1,2,3-triazol-2-yl)hexanamide]
- toxicity towards normal cell line (HEK-293 cells): low toxicity; also recorded: somewhat minimal toxicity
- apoptosis induction (cell morphology) (MCF-7 cells [1]): effectively trigger the apoptotic mode of cell death in breast cancer cells in a concentration-dependent manner
- ROS level (MCF-7 cells [2]): significantly increased in concentration-dependent manner
- increase in cells arrested in G2/M phase compared to control (MCF-7 cells [3]; [5]): 15.91%
- increase in cells arrested in S phase compared to control (MCF-7 cells [3]; [5]): 6.9%
- increase in cells arrested in G2/M phase compared to control (MCF-7 cells [3]; [6]): 19.35%
- increase in cells arrested in S phase compared to control (MCF-7 cells [3]; [6]): 6.07%
- increase in cells arrested in G2/M phase compared to control (MCF-7 cells [3]; [7]): 11.98%
- increase in cells arrested in S phase compared to control (MCF-7 cells [3]; [7]): 5.92%
- increment in early apoptotic cell population with respect to control (MCF-7 cells [4]; [5]): 9.58%
- increment in late apoptotic cell population with respect to control (MCF-7 cells [4]; [5]): 12.6%
- increment in early apoptotic cell population with respect to control (MCF-7 cells [4]; [7]): 5.61%
- increment in late apoptotic cell population with respect to control (MCF-7 cells [4]; [7]): 4.14%

From article PMC12389269, “Heteroaryl-Capped Hydroxamic Acid Derivatives with Varied Linkers: Synthesis and Anticancer Evaluation with Various Apoptosis Analyses in Breast Cancer Cells, Including Docking, Simulation, DFT, and ADMET Studies” (Pharmaceuticals, 2025)
